Tests used:
[1] = test system: Mycobacterium tuberculosis variant bovis; assay: Antimycobacterial activity against Mycobacterium bovis; format: functional
[2] = test system: Mycobacterium tuberculosis variant bovis; assay: Antimycobacterial activity against Mycobacterium bovis BCG; format: functional

Compound	IC [1] [µg/mL]	IC [2] [µg/mL]
C1=C\CCCCN2C[C@H]3CCCC/C=C\CCCCN4CC[C@@H]([C@H](CCCCCC/1)C4)[C@H](C3)C2	2.5	–
C1=C\CCCC[C@@H]2CN3CCCC/C=C\CCCC[C@H]4C[C@H](CN(CCCCCC/1)C4)[C@H]2CC3	1	–
C(=N\Nc1nncs1)/c1c[nH]c2ccccc12	–	7.81
OC1CCCC/C=C\CCCC[C@@H]2CN3CCCC/C=C\CCCC[C@H]4C[C@H](CN(C1)C4)[C@H]2CC3 (some centres undefined)	12.5	–
